Values quoted from earlier work in publication PMC7835950 (Frontiers in Chemistry, 2021).

Tested on: recombinant human OADH
Design: method as in Nemeria et al., 2017, 2018
Details: ref Nemeria et al., 2017, 2018, cited from earlier work

## O=C(O)CCCC(=O)C(=O)O [OA, 2-oxoadipate]
  kcat OA of recombinant OADH complex: 6.0 s⁻¹
read-out: Km OA of recombinant human OADH
  Km: 15 µM
